In patent US8796244B2, “Imidazopyridine derivatives as inhibitors of receptor tyrosine kinases” (Astex Therapeutics Ltd, priority 2008, dated 2014) one finds IC50 and inhibition data, which are given here for 31 compounds.

Where a name gives a salt, the structure may show the parent alone. Read-outs that look alike come from different tables or passages of the source.

In experiment [1] the test system is LP-1 cell line (FGF-1/Heparin induced pERK). The experiment in a line: Cell-based pERK ELISA, LP-1 cells. Particulars: Homo sapiens, LP-1, read-out: LP-1 pERK ELISA (μM).
Experiment [2] has as its system parental wild-type Ba/F3 cells. The experiment in a line: Ba/F3 (WT) cell proliferation assay (Alamar Blue). The format is cell-based. Particulars: Mus musculus. Background: Alamar Blue is a resazurin reagent that responds to reducing activity.
Setting [3] is: BaF3, read-out: BaF3 WT prolif, % inhibition.
The mark [4] stands for this setting: BaF3, 72 hours, Alamar Blue, read-out: BaF3 WT prolif.
Where [5] appears, read: BaF3, 72 h, read-out: BaF3 WT prolif (μM).

Broadly, the inhibition is how much of the control response was suppressed. As to `O=C(NCC(F)(F)F)Nc1cccc(-c2cnc3cc(-c4ccc(=O)[nH]n4)ccn23)c1` [Example 52, 1-{3-[7-(6-Oxo-1,6-dihydropyridazin-3-yl)-imidazo[1,2-a]pyridin-3-yl]-phenyl}-3-(2,2,2-trifluoro-ethyl)-urea], the IC50 in experiment [1] came out at 0.33 µM. In addition, the inhibition at 10 µM in experiment [2] (setting [3]) was determined as 51%.

As for `Cc1cnc(-c2ccn3c(-c4cccc(NC(=O)NCC(F)(F)F)c4)cnc3c2)cn1` [Example 93, 1-{3-[7-(5-Methyl-pyrazin-2-yl)-imidazo[1,2-a]pyridin-3-yl]-phenyl}-3-(2,2,2-trifluoro-ethyl)-urea], the IC50 in experiment [1] turned out to be 0.065 µM; in experiment [2] (setting [4]), 0.043 µM.

As for `CC(C)(CO)Nc1ccc(-c2ccn3c(-c4cccc(NC(=O)NCC(F)(F)F)c4)cnc3c2)nn1` [Example 81, 1-(3-{7-[6-(2-Hydroxy-1,1-dimethyl-ethylamino)-pyrid-azin-3-yl]-1,7-dihydro-imidazo[1,2-a]pyridin-3-yl}-phenyl)-3-(2,2,2-trifluoro-ethyl)-urea hydrochloride], the IC50 in experiment [1] is 0.028 µM. Also, the inhibition at 3 µM in experiment [2] (setting [3]) was 20%.

For the compound `O=C(NCC(F)(F)F)Nc1cccc(-c2cnc3cc(-c4ccc(NCCO)nn4)ccn23)c1` [Example 67, 1-(3-{7-[6-(2-Hydroxy-ethylamino)-pyridazin-3-yl]-imidazo[1,2-a]pyridin-3-yl}-phenyl)-3-(2,2,2-trifluoro-ethyl)-urea], the IC50 in experiment [1] is 0.84 µM; in experiment [2] (setting [4]), 2.1 µM.

On to `Cc1cnnc(-c2ccn3c(-c4cccc(NC(=O)NCC(F)(F)F)c4)cnc3c2)c1` [Example 137, 1-{3-[7-(5-Methyl-pyridazin-3-yl)-imidazo[1,2-a]pyridin-3-yl]-phenyl}-3-(2,2,2-trifluoro-ethyl)-urea], for which the IC50 in experiment [1] amounted to 0.034 µM. Moreover, in experiment [2] (setting [3]), the inhibition at 10 µM is 23%.

Consider `O=C(NCC(F)(F)F)Nc1cccc(-c2cnc3cc(-c4cnn(C5CCNCC5)c4)ccn23)c1` [Example 4, 1-{3-[7-(1-Piperidin-4-yl-1H-pyrazol-4-yl)-imidazo[1,2-a]pyridin-3-yl]phenyl}-3-(2,2,2-trifluoroethyl)urea hydrochloride], for which the IC50 in experiment [1] was determined as 0.077 µM. Also, the inhibition at 10 µM in experiment [2] (setting [3]) was 51%.

Regarding `O=C(Nc1cccc(-c2cnc3cc(-c4ccc(F)cc4)ccn23)c1)NC1CC1` [Example 28, 1-Cyclopropyl-3-{3-[7-(4-fluorophenyl)imidazo[1,2-a]pyridin-3-yl]phenyl}urea], the IC50 in experiment [1] was 0.17 µM. Besides, in experiment [2] (setting [3]), the inhibition at 10 µM is 35%.

On to `CCOc1cccc(-c2ccn3c(-c4cccc(NC(=O)NCC(F)(F)F)c4)cnc3c2)n1` [Example 99, 1-{3-[7-(6-Ethoxy-pyridin-2-yl)-imidazo[1,2-a]pyridin-3-yl]-phenyl}-3-(2,2,2-trifluoro-ethyl)-urea bis-hydrochloride], for which the IC50 came out at 0.063 µM in experiment [1] and 0.32 µM in experiment [2] (setting [5]).

Regarding `Nc1ccnc(-c2ccn3c(-c4cccc(NC(=O)NCC(F)(F)F)c4)cnc3c2)n1` [Example 110, 1-{3-[7-(4-Amino-pyrimidin-2-yl)-imidazo[1,2-a]pyridin-3-yl]-phenyl}-3-(2,2,2-trifluoro-ethyl)-urea], in experiment [1], the IC50 came to 0.0917 µM. In addition, the inhibition at 10 µM in experiment [2] (setting [3]) amounted to 43%.

With `Cn1cncc1C#Cc1ccn2c(-c3cccc(NC(=O)NC4CC4)c3)cnc2c1` [Compound 329], the IC50 in experiment [1] worked out at 0.23 µM. In experiment [2] (setting [3]), the inhibition at 10 µM was found to be 31%.

Turning to `CN(C)CC#Cc1ccn2c(-c3cccc(NC(=O)NCC(F)(F)F)c3)cnc2c1` [Example 14, 1-{3-[7-(3-Dimethylaminoprop-1-ynyl)imidazo[1,2-a]pyridin-3-yl]phenyl}-3-(2,2,2-trifluoroethyl)urea], the IC50 in experiment [1] came out at 0.1 µM; in experiment [2] (setting [4]) it was 1.4 µM.

Take `O=C(NCC(F)(F)F)Nc1cncc(-c2cnc3cc(C#CC4CC4)ccn23)c1` [Example 29, 1-[5-(7-Cyclopropylethynylimidazo[1,2-a]pyridin-3-yl)pyridin-3-yl]-3-(2,2,2-trifluoroethyl)urea]: the IC50 in experiment [1] was 0.12 µM; in experiment [2] (setting [4]) it was 3.1 µM.

In the case of `COc1nccc(-c2ccn3c(-c4cccc(NC(=O)NCC(F)(F)F)c4)cnc3c2)n1` [Example 181], the IC50 in experiment [1] is 0.046 µM; in experiment [2] (setting [4]), 0.49 µM.

Take `CN(C)c1ccc(-c2ccn3c(-c4cccc(NC(=O)NCC(F)(F)F)c4)cnc3c2)nn1` [Example 113, 1-{3-[7-(6-Dimethylamino-pyridazin-3-yl)-imidazo[1,2-a]pyridin-3-yl]-phenyl}-3-(2,2,2-trifluoro-ethyl)-urea formate]: the IC50 in experiment [1] was found to be 0.016 µM; in experiment [2] (setting [5]) it was 1.4 µM.

Regarding `O=C(NCC(F)(F)F)Nc1cccc(-c2cnc3cc(-c4ncc(F)cn4)ccn23)c1` [Example 60, 1-{3-[7-(5-Fluoro-pyrimidin-2-yl)-imidazo[1,2-a]pyridin-3-yl]-phenyl}-3-(2,2,2-trifluoro-ethyl)-urea hydrochloride], the IC50 in experiment [1] worked out at 0.087 µM. Also, in experiment [2] (setting [3]), the inhibition at 10 µM is 0%.

On to `CN1CCC(Nc2ccc(-c3ccn4c(-c5cccc(NC(=O)NCC(F)(F)F)c5)cnc4c3)nn2)CC1` [Example 76, 1-(3-{7-[6-(1-Methyl-piperidin-4-ylamino)-pyridazin-3-yl]-imidazo[1,2-a]pyridin-3-yl}-phenyl)-3-(2,2,2-trifluoro-ethyl)-urea tri-hydrochloride], for which, in experiment [1], the IC50 stood at 0.51 µM. In addition, the inhibition at 10 µM in experiment [2] (setting [3]) amounted to 26%.

As to `Nc1ccnc(-c2ccn3c(-c4cccc(NC(=O)NCC(F)(F)F)c4)cnc3c2)c1` [Example 108, 1-{3-[7-(4-Amino-pyridin-2-yl)-imidazo[1,2-a]pyridin-3-yl]-phenyl}-3-(2,2,2-trifluoro-ethyl)-urea diformate], in experiment [1], the IC50 came out at 1.2 µM. Also, the inhibition at 10 µM in experiment [2] (setting [3]) was found to be 46%.

For `NC(=O)c1sccc1-c1ccn2c(-c3cccc(NC(=O)NCC(F)(F)F)c3)cnc2c1` [Example 43, 3-(3-{3-[3-(2,2,2-Trifluoroethyl)-ureido]-phenyl}-imidazo[1,2-a]pyridin-7-yl)-thiophene-2-carboxylic acid amide hydrochloride], the IC50 in experiment [1] was determined as 0.35 µM. In experiment [2] (setting [3]), the inhibition at 10 µM is 0%.

Take `O=C(NCC(F)(F)F)Nc1cccc(-c2cnc3cc(-c4cnccn4)ccn23)c1` [Example 30, 1-[3-(7-Pyrazin-2-ylimidazo[1,2-a]pyridin-3-yl)phenyl]-3-(2,2,2-trifluoroethyl)urea]: the IC50 in experiment [1] is 0.045 µM; in experiment [2] (setting [4]), 0.13 µM.

As to `Cc1cnc(-c2ccn3c(-c4cccc(NC(=O)NCC(F)(F)F)c4)cnc3c2)nc1N` [Example 175], the results for the IC50 in experiment [1] and in experiment [2] (setting [4]) were 0.077 µM and 10 µM, respectively.

For the compound `Cc1ccc(-c2ccn3c(-c4cncc(NC(=O)NCC(F)(F)F)c4)cnc3c2)nn1` [Example 21, 1-{5-[7-(6-Methylpyridazin-yl)imidazo[1,2-a]pyridin-3-yl]pyridin-3-yl}-3-(2,2,2-trifluoroethyl)urea], the IC50 in experiment [1] stood at 0.41 µM. In addition, the inhibition at 10 µM in experiment [2] (setting [3]) amounted to 0%.

With `Cc1ncc(C#Cc2ccn3c(-c4cccc(NC(=O)NCC(F)(F)F)c4)cnc3c2)n1C` [Example 64, 1-{3-[7-(2,3-Dimethyl-3H-imidazol-4-ylethynyl)-imidazo[1,2-a]pyridin-3-yl]-phenyl}-3-(2,2,2-trifluoro-ethyl)-urea], the IC50 in experiment [1] is 0.049 µM; in experiment [2] (setting [4]), 2.5 µM.

With `O=C(NCC(F)(F)F)Nc1cccc(-c2cnc3cc(-c4nccc(C(F)(F)F)n4)ccn23)c1` [Example 46, 1-(2,2,2-Trifluoro-ethyl)-3-{3-[7-(4-trifluoromethyl-pyrimidin-2-yl)-imidazo[1,2-a]pyridin-3-yl]-phenyl}-urea hydrochloride], the IC50 in experiment [1] was found to be 0.18 µM. For the same compound, the inhibition at 10 µM in experiment [2] (setting [3]) stood at 27%.

As for `CN(C)C1CCN(c2ccc(-c3ccn4c(-c5cccc(NC(=O)NCC(F)(F)F)c5)cnc4c3)nn2)CC1` [Example 36, 1-(3-{7-[6-(4-Dimethylaminopiperidin-1-yl)pyridazin-3-yl]imidazo[1,2-a]pyridin-3-yl}-phenyl)-3-(2,2,2-trifluoroethyl)urea hydrochloride.], the IC50 in experiment [1] came out at 0.065 µM. In experiment [2] (setting [3]), the inhibition at 10 µM amounted to 0%.

Turning to `COc1cccc(-c2ccn3c(-c4cccc(NC(=O)NCC(F)(F)F)c4)cnc3c2)n1` [Example 101, 1-{3-[7-(6-Methoxy-pyridin-2-yl)-imidazo[1,2-a]pyridin-3-yl]-phenyl}-3-(2,2,2-trifluoro-ethyl)-urea], the IC50 came out at 0.055 µM in experiment [1] and 0.16 µM in experiment [2] (setting [4]).

For the compound `COc1ncc(-c2ccn3c(-c4cccc(NC(=O)NCC(F)(F)F)c4)cnc3c2)cc1C` [Example 188], the IC50 in experiment [1] turned out to be 0.09 µM; in experiment [2] (setting [4]), 0.43 µM.

Consider `NC(=O)Nc1cccc(-c2cnc3cc(-c4ccc(F)cc4)ccn23)c1` [Example 154, {3-[7-(4-Fluoro-phenyl)-imidazo[1,2-a]pyridin-3-yl]-phenyl}-urea], for which the IC50 is 0.086 µM in experiment [1] and 5.6 µM in experiment [2] (setting [4]).

Consider `COCCc1nnc(-c2ccn3c(-c4cccc(NC(=O)NCC(F)(F)F)c4)cnc3c2)s1` [Compound 319], for which the IC50 is 0.012 µM in experiment [1] and 0.15 µM in experiment [2] (setting [4]).

Turning to `O=C(NCC(F)(F)F)Nc1cccc(-c2cnc3cc(-c4ccncn4)ccn23)c1` [Example 34, 1-[3-(7-Pyrimidin-4-ylimidazo[1,2-a]pyridin-3-yl)phenyl]-3-(2,2,2-trifluoroethyl)urea hydrochloride], in experiment [1], the IC50 came out at 0.013 µM. Further, the inhibition at 10 µM in experiment [2] (setting [3]) is 0%.

Turning to `COc1ccnc(-c2ccn3c(-c4cccc(NC(=O)NCC(F)(F)F)c4)cnc3c2)n1` [Compound 336], the IC50 in experiment [1] was determined as 0.074 µM; in experiment [2] (setting [4]), 0.46 µM.

In the case of `Nc1ccc(-c2ccn3c(-c4cccc(NC(=O)NCC(F)(F)F)c4)cnc3c2)nc1` [Example 124, 1-{3-[7-(5-Amino-pyridin-2-yl)-imidazo[1,2-a]pyridin-3-yl]-phenyl}-3-(2,2,2-trifluoro-ethyl)-urea hydrochloride], the IC50 was 0.024 µM in experiment [1] and 0.27 µM in experiment [2] (setting [5]).
